Laboratory results reported in PubChem BioAssay AID588780 (Sanford-Burnham Center for Chemical Genomics, 2011).
Activity calls are given as the source filed them.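 Rule for the calls: active = compounds whose fitted half-maximal concentration in the cell-protection dose series is at or below a set limit; inactive = the rest.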

System: H9c2 cardiomyocytes, 2-deoxyglucose stress, ATP luminescence, 2 h
Experiment: protection of cardiomyocytes from 2-deoxyglucose injury, dose response, cell-based, 2-deoxyglucose stress, uHTS hits (AID 588780)

Compound	IC50
CC(=O)c1ccc(-c2cnc3c(NC=O)cc(-c4cccc(NS(C)(=O)=O)c4)cn23)cc1	> 79 µM (inactive)
COc1ccccc1C(=O)COC(=O)Cn1[nH]c(=O)c2ccccc2c1=O	> 79 µM (inactive)
COc1ccc(-c2csc(NC(=O)c3cccc(N4C(=O)CCC4=O)c3)n2)cc1OC	10.6 µM
Cc1csc2nc(COC(=O)c3ccc(Cl)c([N+](=O)[O-])c3)cc(=O)n12	> 79 µM (inactive)
O=C(Nc1ccccc1)c1nc[nH]c1C(=O)NCCNC(=O)c1[nH]cnc1C(=O)Nc1ccccc1	> 79 µM (inactive)
Cc1ccc(S(=O)(=O)N(C)C)cc1NC(=O)COC(=O)Cc1n[nH]c(=O)c2ccccc12	> 79 µM (inactive)
COC(=O)c1cccc(Nc2nc(-c3cccnc3)nc3ccccc23)c1	> 79 µM (inactive)
COC(=O)/C(=C(O)\C=C\c1ccccc1[N+](=O)[O-])c1nc2ccccc2[nH]1	> 79 µM (inactive)
NC(=O)c1nsc(C(=O)N(c2ccccc2)C(C(=O)NCc2ccc(F)cc2)c2ccc(O)cc2)c1N (stereo unspecified)	> 79 µM (inactive)
CCOC(=O)C1=C(COC(=O)/C=C/c2ccc(F)cc2)NC(=O)NC1C (stereo unspecified)	16.2 µM
O=C(CN1C(=O)C2C3C=CC(C3)C2C1=O)Nc1nc(-c2ccccn2)cs1 (stereo unspecified)	29 µM
Cc1cc(C)c(C)c(S(=O)(=O)N2CCC(C(=O)NNC(=O)c3ccccc3O)CC2)c1C	> 79 µM (inactive)
Cn1c(-n2c(CCCN3C(=O)c4ccccc4C3=O)nc3ccccc3c2=O)nc2ccccc21	26.4 µM
O=C(/C=C/c1ccc(Cl)c([N+](=O)[O-])c1)Nc1cccnc1	> 79 µM (inactive)
CC(OC(=O)Cc1n[nH]c(=O)c2ccccc12)C(=O)Nc1ccc(F)cc1 (stereo unspecified)	> 79 µM (inactive)
CC(=O)Nc1ccc(C(=O)Nc2nc(-c3ccccn3)cs2)cc1	32.1 µM (inactive)
O=c1[nH]nc(Cc2ccccc2)c2ccccc12	> 79 µM (inactive)
Brc1ccc(CSc2ccc3nnc(-c4cccnc4)n3n2)cc1	> 79 µM (inactive)
CCC(=O)OCCNc1cc(SCCC(=O)OC)c2nonc2c1[N+](=O)[O-]	> 79 µM (inactive)
O=C(Cc1n[nH]c(=O)c2ccccc12)NCc1ccc(Cl)cc1	> 79 µM (inactive)
O=C(Oc1ccc(N(Cc2cccs2)C2=NS(=O)(=O)c3ccccc32)cc1)c1ccccc1Cl	> 79 µM (inactive)
CCC(C)Nc1ncnc2c1cnn2Cc1ccc(Cl)cc1 (stereo unspecified)	> 79 µM (inactive)
COc1ccc(OCC(=O)N/N=C/c2cccc3cccnc23)cc1	38.6 µM (inactive)
O=C(CCc1nc2ccccc2c(=O)[nH]1)NNC(=O)c1ccccc1Cl	> 79 µM (inactive)

Compound	IC50
COc1cccc(-c2cnc3c(NC=O)cc(-c4cc(C)c(O)c(C)c4)cn23)c1	10.2 µM
COc1cc2c(C#CCCO)c(-c3ccsc3)oc(=O)c2cc1OC	> 79 µM (inactive)
COc1ccc(-c2nn(-c3ccccc3)cc2C(=O)Nc2nccs2)cc1	12.1 µM
COc1ccc(OCC(O)Cn2c(Nc3cccc(C)c3)nc3c2c(=O)n(C)c(=O)n3C)cc1 (stereo unspecified)	> 79 µM (inactive)
Cn1c(=O)c2c(nc(NCCCO)n2C/C=C/c2ccccc2)n(C)c1=O	> 79 µM (inactive)
O=C(c1ccc(-c2nc3ccccc3s2)o1)N1CCN(c2ccccc2O)CC1	12.3 µM
CC(C)n1nc(C(=O)OCC(=O)c2c[nH]c3ccccc23)c2ccccc2c1=O	> 79 µM (inactive)
COc1ccc(-n2c(/C=C/c3ccc(O)cc3)nc3ccccc3c2=O)cc1	15.8 µM
O=C1Nc2ccccc2C(=O)C1(Cl)Cc1ccccc1 (stereo unspecified)	> 79 µM (inactive)
Cc1ccc(NC(=O)CCCc2nc3ccccc3c(=O)[nH]2)c(Cl)c1	40 µM (inactive)
O=C(COC(=O)c1c2c(nc3ccccc13)/C(=C/c1cccc([N+](=O)[O-])c1)CCC2)NC1CCS(=O)(=O)C1 (stereo unspecified)	13.4 µM
COc1cccc(-c2ccc(SCC(=O)N3CCN(c4ccccc4)CC3)nn2)c1	> 79 µM (inactive)
CCOc1ccccc1Nc1nnc(SCc2nnc(-c3cc(OC)c(OC)c(OC)c3)o2)s1	11.1 µM
COC(=O)Oc1ccc(/C=C/C(=O)OC(C)C)cc1OC(=O)OC	63.1 µM (inactive)
Cc1cc2ccccc2c(=O)[nH]1	7.23 µM
CCN1C(=O)/C(=C/c2nc3ccccc3c(=O)[nH]2)c2ccccc21	> 79 µM (inactive)
Cc1sc2nc(CSCC(=O)N(C)CC(=O)Nc3ccc(F)cc3)[nH]c(=O)c2c1C	> 79 µM (inactive)
CCOC(=O)CNC(=O)CSc1nc2nc(C)c(Br)cc2[nH]1	> 79 µM (inactive)
COc1ccc2[nH]c(=O)c(CN(Cc3ccco3)C(c3nnnn3Cc3ccccc3)C(C)C)cc2c1 (stereo unspecified)	> 79 µM (inactive)
c1coc(-c2nnc3sc(-c4cccs4)nn23)c1	> 79 µM (inactive)
CCCn1c(=O)c(C(=O)Nc2ccccc2)c(O)c2ccccc21	> 79 µM (inactive)
Cc1cc(N)n(-c2nc(-c3cccnc3)nc3ccccc23)n1	19.8 µM
COc1ccc(C(=O)COC(=O)c2ccc([N+](=O)[O-])s2)cc1OC	> 79 µM (inactive)
COc1ccccc1NC(=O)c1ccc(NC(=O)Cc2n[nH]c(=O)c3ccccc23)cc1	> 79 µM (inactive)

Compound	IC50
Cc1c(NC(=O)Cn2[nH]c(=O)c3ccccc3c2=O)c(=O)n(-c2ccccc2)n1C	> 79 µM (inactive)
CN(C)C(=O)c1ccc(-c2n[nH]c(=O)c3ccccc23)cc1	> 79 µM (inactive)
COc1ccc(C=NNc2nc3c([nH]2)c(=O)n(C)c(=O)n3C)cc1	> 79 µM (inactive)
CCOC(=O)CSc1nnc(CSc2nc3sc4c(c3c(=O)[nH]2)CCC4)n1C	> 79 µM (inactive)
O=c1c(O)c(-c2cccs2)oc2ccc(Cl)cc12	20.6 µM
CCCNC(=O)c1ccc2c(=O)c(O)c(-c3ccc(F)cc3)[nH]c2c1	> 79 µM (inactive)
COc1ccc(NC(=O)c2oc3ccc(S(=O)(=O)N4CCOCC4)cc3c2C)cc1	> 79 µM (inactive)
N/C(=N\NS(=O)(=O)c1ccccc1)c1ccccn1	> 79 µM (inactive)
CCOc1ccccc1C(=O)N/N=C/c1cccc2cccnc12	> 79 µM (inactive)
COc1cccc(/C=N/NC(=O)c2oc3nc(-c4ccccc4)cc(-c4ccco4)c3c2N)c1	> 79 µM (inactive)
Cc1ccc2cc3c(NC(=O)c4cccnc4)nn(C)c3nc2c1	> 79 µM (inactive)
CC(C)(C)c1nn(-c2ccccc2)c2[nH]c(=O)c(CNCc3ccco3)cc12	40.3 µM (inactive)
COc1ccc(C(=O)NN/C=C/C(=O)c2ccc(Br)cc2)cc1	> 79 µM (inactive)
COc1ccccc1OCC(=O)N/N=C/c1cccc2cccnc12	49.2 µM (inactive)
O=C1NC(Cc2ccc(O)cc2)c2nc3ccc(F)cc3c(=O)n2-c2cc3ccccc3cc21 (stereo unspecified)	12.4 µM
O=Cc1ccc(OCc2cccc(C(F)(F)F)c2)cc1O	28.1 µM
Cc1cc(-n2c(C)cc(C(=O)COc3ccc4ccc(=O)oc4c3)c2C)no1	> 79 µM (inactive)
O=c1[nH]ccc2c(O)cccc12	> 79 µM (inactive)
CCN(CC)S(=O)(=O)c1cccc(C(=O)N/N=C/c2ccccn2)c1	> 79 µM (inactive)
COc1ccc(CNn2c(-c3cccs3)nc3ccccc3c2=O)cc1OC	11.8 µM
Cc1nc2c(c(=O)n1CCC1=CCCCC1)c1nc3ccccc3nc1n2/N=C/c1ccccc1	11.7 µM
O=C(CSc1nnc(Cc2cccs2)n1CCc1ccccc1)N1CCCc2ccccc21	> 79 µM (inactive)
O=C(NCCN1CCN(c2ccccc2F)CC1)c1cccn2c(=O)c3ccccc3nc12	11.2 µM
CCOC(=O)c1cc(-c2nnc(-c3cc(OC)c(OC)c(OC)c3)o2)c(C)nc1C	> 79 µM (inactive)

Compound	IC50
CCOCc1c(C(=O)NC2=Nc3ccccc3NC(CC)=C2C(=O)OCC)oc2ccccc12	> 79 µM (inactive)
COc1ccc(CCNc2nc(-c3cccnc3)nc3ccccc23)cc1OC	> 79 µM (inactive)
Cc1sc2nc(SCC(=O)N3CCOCC3)[nH]c(=O)c2c1C	> 79 µM (inactive)
CN(C)S(=O)(=O)c1cccc(NC(=O)COC(=O)c2ccc([N+](=O)[O-])o2)c1	> 79 µM (inactive)
COc1ccc(C(=O)COC(=O)C(CCCCN2C(=O)C3C4C=CC(C4)C3C2=O)N2C(=O)C3C4C=CC(C4)C3C2=O)cc1 (stereo unspecified)	13.7 µM
CN(CC(=O)Nc1cccc(F)c1)C(=O)CCc1nc2ccccc2c(=O)[nH]1	> 79 µM (inactive)
CCC(c1nnnn1Cc1ccccc1)N1CCC(n2c(=O)[nH]c3ccccc32)CC1 (stereo unspecified)	> 79 µM (inactive)
O=C1C2C3C=CC(CC3)C2C(=O)N1c1cccc(Br)c1 (stereo unspecified)	> 79 µM (inactive)
COc1ccc(-c2ccc3c(c2)S(=O)(=O)c2cccc(C(=O)N4CCN(c5ccccn5)CC4)c2C3=O)cc1OC	13.7 µM
O=C(CSC1=NNC(c2ccccn2)S1)Nc1cccc(Cl)c1 (stereo unspecified)	> 79 µM (inactive)
Cc1cc(C)c(OCC(=O)Nc2nc(-c3ccccn3)cs2)c(C)c1	> 79 µM (inactive)
CCCc1nc2ccccc2c(C(=O)OCc2nnc(-c3cc(OC)c(OC)c(OC)c3)o2)c1CC	11 µM
O=C(N/N=C/c1ccccn1)c1cccs1	> 79 µM (inactive)
O=C(N/N=C/c1ccccn1)c1cc(-c2ccc(Cl)s2)[nH]n1	> 79 µM (inactive)
Nc1nc(-c2c[nH]c3ccccc23)cs1	> 79 µM (inactive)
CC(=NCCCn1ccnc1)c1c(-c2ccccc2)[nH]n(-c2nc3ccccc3s2)c1=O	> 79 µM (inactive)
COc1ccc(-c2cc(-c3nnc(COC(=O)C4CC4C)o3)c3ccccc3n2)cc1OC (stereo unspecified)	> 79 µM (inactive)
Cc1sc2nc(SCC(=O)N(C)C)[nH]c(=O)c2c1C	> 79 µM (inactive)
O=c1[nH]c2cccnc2c2ccsc12	> 79 µM (inactive)
O=C(CSc1nc2ccccc2c(=O)[nH]1)N1CCCCCC1	> 79 µM (inactive)
COc1ccc2cc3cc(C(=O)Nc4cc(OC)c(OC)c(OC)c4)oc3nc2c1	27.5 µM
COc1ccc(-c2cc(C(=O)N3CCN(c4ccccc4)CC3)c3ccccc3n2)cc1OC	> 79 µM (inactive)
Nc1c(C(=O)N/N=C/c2cccnc2)oc2nc(-c3ccco3)cc(-c3ccco3)c12	> 79 µM (inactive)
CC1CCN(CCCNC(=O)c2n[nH]c(=O)c3ccccc23)CC1	> 79 µM (inactive)
